≈ marks a conversion by molar mass, not a printed value. Read-outs that look alike come from different tables or passages of the source.
Experiments:
[1] = tested on: Mycobacterium tuberculosis H37Rv; assay: Antitubercular activity, broth dilution assay (MIC); format: cell-based; conditions: for MIC: Middlebrook 7H9 broth, 37 °C, 21 days; for fold less activity than pyrazinamide / fold better activity than the standard pyrazinamide: ratio of MICs vs pyrazinamide (MIC 25.34 µM); for fold more antitubercular activity than the chalcones 14 and 16: 29 vs 14, 31 vs 16
[2] = tested on: prostate cancer cell lines (DU-145); assay: Antiproliferative activity, MTT assay; format: cell-based; conditions: Homo sapiens, 48 h, mean ± SD (n = 3)
Protocol: (§1) The antiproliferative activity of the compounds was determined their IC50 values. Methotrexate (Mtx; positive control) was used as a reference standard for comparing the antiproliferative activity of the target compounds. The MTT (3-(4,5-dimethylthiazol-2-yl)-2,5-diphenyl tetrazolium bromide) assay was based on the reduction of the soluble MTT (0.5 mg mL^−1, 100 µL) into a blue-purple formazan product, mainly by the activity of mitochondrial reductase enzymes inside the living cells. The prostate cancer cell lines, DU-145 cells, were cultured in Dulbecco’s Modified Eagle Medium (DMEM) media at 37 °C and humidified at 5% CO2. Stock solutions of the test compounds (17–46) were prepared in 0.1% DMSO followed by dilution with sterile water to obtain the desired final concentrations. Briefly, the cells were placed on 96-well plates at 100 µL total volume with the density of 1 × 10^4 cells per well and were allowed to adhere for 24 h. Then the medium was replaced with fresh media containing different dilutions of the test compounds and incubated for additional 48 h at 37 °C in DMEM with 10% fetal bovine serum (FBS) medium. Subsequently, the medium was replaced with 90 μL of fresh DMEM without FBS. The above wells were treated with 10 μL of MTT reagent (5 mg/mL of stock solution in DMEM without FBS) and incubated at 37 °C for 3–4 h. The formed blue formazan crystals were dissolved in 200 μL of DMSO. The optical density was determined at 570 nm using a micro plate reader. The assay was performed in triplicate for three independent experiments. The same experimentation was also done to confirm that the DMSO (negative control) had no effect in the study. The results had good reproducibility between replicate wells with standard errors below 10%. The antiproliferative activity results measured as IC50 values in µg/mL were converted and expressed in µM. Additionally, the cytotoxic activity of the compounds was also measured employing the same protocol discussed above to assess their toxicity on normal human cell lines (L02).

[3] = Cytotoxic activity on normal cells, MTT assay; format: cell-based
Protocol: as §1

[4] = tested on: Aspergillus niger (ATCC-6275); assay: Antifungal activity, serial tube dilution method (MIC); conditions: for MIC: Aspergillus niger; for Antifungal activity MIC, A. niger: serial tube dilution, 37 °C, 18 h, average of three
[5] = tested on: Candida tropicalis (ATCC-1369); assay: as above; conditions: for MIC: Candida tropicalis, ATCC1369, 18 h, read-out: Antifungal activity MIC, C. tropicalis, serial tube dilution, 37 °C, 18 h, average of three
[6] = tested on: normal human cell lines (L02); assay: Cytotoxic activity on normal cells, MTT assay; format: cell-based; conditions: normal human cell line L02
Protocol: as §1

[7] = Mycobacterium tuberculosis, H37RV, 504 h
[8] = L02 cells (normal human cell line)
[9] = ATCC6275, 18 h, read-out: Antifungal activity MIC, A. niger, serial tube dilution, 37 °C, 18 h, average of three
[10] = ATCC6275, read-out: Antifungal MIC, Aspergillus niger

## O=C(/C=C/c1ccc[nH]1)c1ccc(Cl)c(Cl)c1 [Compound 15, (E)-1-(3,4-dichlorophenyl)-3-(1H-pyrrol-2-yl)prop-2-en-1-one]
[1]; [7]
  MIC: 47.2 µM (≈ 12.6 µg/mL)
[2]
  IC50: 94 ± 2 µM
[3]; [8]
  IC50 at 48 h: > 50 µg/mL
other
  melting point: 238 °C
[4]; [9]
  MIC: 60.4 µM
[5]
  MIC: 60.4 µM (≈ 16.1 µg/mL)

## O=C(/C=C/c1cccs1)c1ccc(Cl)c(Cl)c1 [Compound 16, (E)-1-(3,4-dichlorophenyl)-3-(thiophen-2-yl)prop-2-en-1-one]
[1]; [7]
  MIC: 22.1 µM (≈ 6.25 µg/mL)
[2]
  IC50: 17 ± 1 µM
[3]; normal human cell line L02
  IC50 at 48 h: > 50 µg/mL
other
  melting point: 194 °C
[4]
  fold better activity in comparison to fluconazole, Aspergillus niger: 1.84 fold
[4]; [9]
  MIC: 14.1 µM
[5]
  fold better activity in comparison to fluconazole, Candida tropicalis: 1.35 fold
  MIC: 14.1 µM (≈ 4 µg/mL)

## Cc1ccc(C2CC(c3ccc(Cl)c(Cl)c3)=NN2c2ccccc2)cc1 (stereo not drawn) [Compound 17, 3-(3,4-dichlorophenyl)-1-phenyl-5-(p-tolyl)-4,5-dihydro-1H-pyrazole]
[1]; [7]
  MIC: 262 µM (≈ 100 µg/mL)
[2]
  IC50: 351 ± 2 µM
[3]; [8]
  IC50 at 48 h: > 75 µg/mL
other
  melting point: 168 °C
[4]; [9]
  MIC: 42 µM
[5]
  MIC: 42 µM (≈ 16 µg/mL)

## Fc1ccc(C2CC(c3ccc(Cl)c(Cl)c3)=NN2c2ccccc2)cc1 (stereo not drawn) [Compound 18, 3-(3,4-dichlorophenyl)-1-phenyl-5-(4-fluorophenyl)-4,5-dihydro-1H-pyrazole]
[1]
  MIC: 32.44 µM (≈ 12.5 µg/mL)
  fold less activity than pyrazinamide: 1.2 fold
[2]
  IC50: 119 ± 2 µM
[3]; [8]
  IC50 at 48 h: > 75 µg/mL
other
  melting point: 195 °C
[4]; [9]
  MIC: 28.8 µM
[4]; [10]
  MIC: 20.8 µg/mL
[4]
  Antifungal activity MIC, A. niger: 20.76 µM
[5]
  MIC: 41.5 µM (≈ 16 µg/mL)

## Fc1ccccc1C1CC(c2ccc(Cl)c(Cl)c2)=NN1c1ccccc1 (stereo not drawn) [Compound 19, 3-(3,4-dichlorophenyl)-1-phenyl-5-(2-fluorophenyl)-4,5-dihydro-1H-pyrazole]
[1]
  MIC: 32.44 µM (≈ 12.5 µg/mL)
  fold less activity than pyrazinamide: 1.2 fold
[2]
  IC50: 327 ± 2 µM
[3]; [8]
  IC50 at 48 h: > 75 µg/mL
other
  melting point: 149 °C
[4]; [9]
  MIC: 20.8 µM
[4]; [10]
  MIC: 20.8 µg/mL
[5]
  MIC: 41.5 µM (≈ 16 µg/mL)

## Clc1ccc(C2CC(c3ccc(Cl)c(Cl)c3)=NN2c2ccccc2)cc1 (stereo not drawn) [Compound 20, 3-(3,4-dichlorophenyl)-1-phenyl-5-(4-chlorophenyl)-4,5-dihydro-1H-pyrazole]
[1]
  MIC: 31.11 µM (≈ 12.5 µg/mL)
  fold less activity than pyrazinamide: 1.2 fold
[2]
  IC50: 149 ± 2 µM
[3]; [8]
  IC50 at 48 h: > 75 µg/mL
other
  melting point: 261 °C
[4]; [9]
  MIC: 28.8 µM
[4]
  Antifungal activity MIC, A. niger: 19.91 µM
[5]
  MIC: 39.8 µM (≈ 16 µg/mL)

## Clc1ccc(C2=NN(c3ccccc3)C(c3ccccc3Cl)C2)cc1Cl (stereo not drawn) [Compound 21, 3-(3,4-dichlorophenyl)-1-phenyl-5-(2-chlorophenyl)-4,5-dihydro-1H-pyrazole]
[1]
  MIC: 15.55 µM (≈ 6.25 µg/mL)
  fold better activity than the standard pyrazinamide: 1.6 fold
[1]; [7]
  MIC: 15.6 to 32.4 µM (≈ 6.25 to 13 µg/mL)
[2]
  IC50: 134 ± 2 µM
[3]; [8]
  IC50 at 48 h: > 75 µg/mL
other
  melting point: 133 °C
[4]; [9]
  MIC: 19.9 µM
[4]; [10]
  MIC: 19.9 µg/mL
[5]
  MIC: 39.8 µM (≈ 16 µg/mL)

## Fc1ccc(C2CC(c3ccc(Cl)c(Cl)c3)=NN2c2ccccc2)c(F)c1 (stereo not drawn) [Compound 22, 3-(3,4-dichlorophenyl)-1-phenyl-5-(2,4-difluorophenyl)-4,5-dihydro-1H-pyrazole]
[1]; [7]
  MIC: 3.96 µM (≈ 1.6 µg/mL)
[2]
  IC50: 262 ± 2 µM
[3]; [8]
  IC50 at 48 h: > 75 µg/mL
other
  melting point: 291 °C
[4]; [9]
  MIC: 19.8 µM
[5]
  MIC: 19.8 µM (≈ 8 µg/mL)

## Clc1ccc(C2CC(c3ccc(Cl)c(Cl)c3)=NN2c2ccccc2)c(Cl)c1 (stereo not drawn) [Compound 23, 3-(3,4-dichlorophenyl)-1-phenyl-5-(2,4-dichlorophenyl)-4,5-dihydro-1H-pyrazole]
[1]; [7]
  MIC: 7.15 µM (≈ 3.12 µg/mL)
[1]; comparator compound 20
  fold improvement in antitubercular activity compared to compound 20: 4 fold
[1]; comparator compound 21
  fold improvement in antitubercular activity compared to compound 21: 2 fold
[2]
  IC50: 206 ± 2 µM
[3]; [8]
  IC50 at 48 h: > 75 µg/mL
other
  melting point: 302 °C
[4]; [9]
  MIC: 18.3 µM
[5]
  MIC: 36.7 µM (≈ 16 µg/mL)

## FC(F)(F)c1ccc(C2CC(c3ccc(Cl)c(Cl)c3)=NN2c2ccccc2)cc1 (stereo not drawn) [Compound 24, 3-(3,4-dichlorophenyl)-1-phenyl-5-(4-trifluoromethylphenyl)-4,5-dihydro-1H-pyrazole]
[1]; [7]
  MIC: 3.67 µM (≈ 1.6 µg/mL)
[1]
  fold better activity than the standard pyrazinamide: sevenfold
[2]
  IC50: 257 ± 2 µM
[3]; [8]
  IC50 at 48 h: > 75 µg/mL
other
  melting point: 125 °C
[4]; [9]
  MIC: 9.18 µM
[4]; comparator compound 17
  fold improvement in activity over compound 17 (CH3 replaced with CF3), Aspergillus niger: 4.6 fold
[5]
  MIC: 9.18 µM (≈ 4 µg/mL)
[5]; comparator compound 17
  fold improvement in activity over compound 17 (CH3 replaced with CF3), Candida tropicalis: 4.6 fold

## Clc1ccc(C2=NN(c3ccccc3)C(c3ccc4c(c3)OCO4)C2)cc1Cl (stereo not drawn) [Compound 25, 3-(3,4-dichlorophenyl)-1-phenyl-5-(benzo[d][1,3]dioxol-5-yl)-4,5-dihydro-1H-pyrazole]
[1]; [7]
  MIC: 60.8 µM (≈ 25 µg/mL)
[2]
  IC50: 131 ± 2 µM
[3]; [8]
  IC50 at 48 h: > 75 µg/mL
other
  melting point: 212 °C
[4]; [9]
  MIC: 19.4 µM
[5]
  MIC: 19.4 µM (≈ 8 µg/mL)

## Clc1ccc(C2=NN(c3ccccc3)C(c3ccccn3)C2)cc1Cl (stereo not drawn) [Compound 26, 3-(3,4-dichlorophenyl)-1-phenyl-5-(pyridin-2-yl)-4,5-dihydro-1H-pyrazole]
[1]; [7]
  MIC: 67.9 µM (≈ 25 µg/mL)
[2]
  IC50: 271 ± 2 µM
[3]; [8]
  IC50 at 48 h: > 75 µg/mL
other
  melting point: 191 °C
[4]; [9]
  MIC: 21.7 µM
[5]
  MIC: 21.7 µM (≈ 8 µg/mL)

## Clc1ccc(C2=NN(c3ccccc3)C(c3cccnc3)C2)cc1Cl (stereo not drawn) [Compound 27, 3-(3,4-dichlorophenyl)-1-phenyl-5-(pyridin-3-yl)-4,5-dihydro-1H-pyrazole]
[1]; [7]
  MIC: 67.9 µM (≈ 25 µg/mL)
[2]
  IC50: 211 ± 2 µM
[3]; [8]
  IC50 at 48 h: > 75 µg/mL
other
  melting point: 184 °C
[4]; [9]
  MIC: 21.7 µM
[5]
  MIC: 21.7 µM (≈ 8 µg/mL)

## Clc1ccc(C2=NN(c3ccccc3)C(c3ccncc3)C2)cc1Cl (stereo not drawn) [Compound 28, 3-(3,4-dichlorophenyl)-1-phenyl-5-(pyridin-4-yl)-4,5-dihydro-1H-pyrazole]
[1]; [7]
  MIC: 67.9 µM (≈ 25 µg/mL)
[2]
  IC50: 173 ± 2 µM
[3]; [8]
  IC50 at 48 h: > 75 µg/mL
other
  melting point: 214 °C
[4]; [9]
  MIC: 21.7 µM
[5]
  MIC: 21.7 µM (≈ 8 µg/mL)

## Clc1ccc(C2=NN(c3ccccc3)C(c3ccco3)C2)cc1Cl (stereo not drawn) [Compound 29, 3-(3,4-dichlorophenyl)-1-phenyl-5-(furan-2-yl)-4,5-dihydro-1H-pyrazole]
[1]
  fold more antitubercular activity than the chalcones 14 and 16: 2.6 fold
[1]; [7]
  MIC: 17.5 µM (≈ 6.25 µg/mL)
[2]
  IC50: 162 ± 2 µM
[3]; [8]
  IC50 at 48 h: > 75 µg/mL
other
  melting point: 200 °C
[4]; [9]
  MIC: 11.2 µM
[5]
  MIC: 11.2 µM (≈ 4 µg/mL)

## Clc1ccc(C2=NN(c3ccccc3)C(c3ccc[nH]3)C2)cc1Cl (stereo not drawn) [Compound 30, 3-(3,4-dichlorophenyl)-1-phenyl-5-(1H-pyrrol-2-yl)-4,5-dihydro-1H-pyrazole]
[1]; [7]
  MIC: 70.2 µM (≈ 25 µg/mL)
[1]; comparator compound 15
  fold reduction in antitubercular activity compared with chalcone 15: 1.5 fold
[2]
  IC50: 84 ± 2 µM
[3]; [8]
  IC50 at 48 h: > 75 µg/mL
other
  melting point: 171 °C
[4]; [9]
  MIC: 44.9 µM
[5]
  MIC: 44.9 µM (≈ 16 µg/mL)

## Clc1ccc(C2=NN(c3ccccc3)C(c3cccs3)C2)cc1Cl (stereo not drawn) [Compound 31, 3-(3,4-dichlorophenyl)-1-phenyl-5-(thiophen-2-yl)-4,5-dihydro-1H-pyrazole]
[1]
  fold more antitubercular activity than the chalcones 14 and 16: 2.6 fold
[1]; [7]
  MIC: 8.35 µM (≈ 3.12 µg/mL)
[2]
  IC50: 32 ± 1 µM
[3]; normal human cell line L02
  IC50 at 48 h: > 75 µg/mL
other
  melting point: 212 °C
[4]
  fold better activity in comparison to fluconazole, Aspergillus niger: 4.9 fold
[4]; 31 (5.35 µM) vs 16 (14.12 µM)
  fold improvement in MIC of dihydropyrazole over chalcone 16, Aspergillus niger: 2.6 fold
[4]; [9]
  MIC: 5.35 µM
[5]
  fold better activity in comparison to fluconazole, Candida tropicalis: 3.7 fold
  MIC: 5.35 µM (≈ 2 µg/mL)
[5]; 31 (5.35 µM) vs 16 (14.12 µM)
  fold improvement in MIC of dihydropyrazole over chalcone 16, Candida tropicalis: 2.6 fold

## CN(Cc1cnc2nc(N)nc(N)c2n1)c1ccc(C(=O)N[C@@H](CCC(=O)O)C(=O)O)cc1 [Methotrexate, reference compound]
[2]
  IC50: 11 ± 1 µM
[3]; [8]
  IC50 at 48 h: > 75 µg/mL
[6]
  Cytotoxic activity IC50, L02: >75 µg/mL
